From PubChem BioAssay (NCI)
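Each compound was tested at five concentrations against cells in 96-well plates for 48 hours. GI50 = concentration required for 50% inhibition of growth. TGI: concentration producing complete growth inhibition.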

Key:
Assay in all cases: growth of human tumour cells (NCI), 48 h
786-0 renal = test system: 786-0 renal
A498 renal = test system: A498 renal
A549 NSCLC = test system: A549 NSCLC
ACHN renal = test system: ACHN renal
BT-549 breast = test system: BT-549 breast
CAKI-1 renal = test system: CAKI-1 renal
CCRF-CEM leukemia = test system: CCRF-CEM leukemia
COLO 205 colon = test system: COLO 205 colon
DU-145 prostate = test system: DU-145 prostate
EKVX NSCLC = test system: EKVX NSCLC
HCC-2998 colon = test system: HCC-2998 colon
HCT-116 colon = test system: HCT-116 colon
HCT-15 colon = test system: HCT-15 colon
HL-60(TB) leukemia = test system: HL-60(TB) leukemia
HOP-62 NSCLC = test system: HOP-62 NSCLC
HOP-92 NSCLC = test system: HOP-92 NSCLC
HS 578T breast = test system: HS 578T breast
HT29 colon = test system: HT29 colon
IGROV1 ovarian = test system: IGROV1 ovarian
K-562 leukemia = test system: K-562 leukemia
KM12 colon = test system: KM12 colon
LOX IMVI melanoma = test system: LOX IMVI melanoma
M14 melanoma = test system: M14 melanoma
MALME-3M melanoma = test system: MALME-3M melanoma
MCF7 breast = test system: MCF7 breast
MDA-MB-231 breast = test system: MDA-MB-231 breast
MDA-MB-435 = test system: MDA-MB-435
MOLT-4 leukemia = test system: MOLT-4 leukemia
NCI-H226 lung = test system: NCI-H226 lung

SMILES: CN1CCN(Cc2ccc(NC(=O)c3cncc(C#Cc4cnc5[nH]ncc5c4)c3)cc2C(F)(F)F)CC1
- GI50 (786-0 renal): 3.55 µM
- TGI (786-0 renal): 27 µM
- GI50 (A498 renal): 1.96 µM
- TGI (A498 renal): 15 µM
- GI50 (A549 NSCLC): 4.31 µM
- TGI (A549 NSCLC): 39.5 µM
- GI50 (ACHN renal): 0.888 µM
- TGI (ACHN renal): 10.8 µM
- GI50 (BT-549 breast): 3.81 µM
- TGI (BT-549 breast): 16.7 µM
- GI50 (CAKI-1 renal): 0.52 µM
- TGI (CAKI-1 renal): 10.9 µM
- GI50 (CCRF-CEM leukemia): 3.64 µM
- TGI (CCRF-CEM leukemia): 66.6 µM
- GI50 (COLO 205 colon): 1.87 µM
- TGI (COLO 205 colon): 13.2 µM
- GI50 (DU-145 prostate): 1.54 µM
- TGI (DU-145 prostate): 16.4 µM
- GI50 (EKVX NSCLC): 2.72 µM
- TGI (EKVX NSCLC): 18 µM
- GI50 (HCC-2998 colon): 4.51 µM
- TGI (HCC-2998 colon): 18.6 µM
- GI50 (HCT-116 colon): 0.737 µM
- TGI (HCT-116 colon): 12.8 µM
- GI50 (HCT-15 colon): 2.97 µM
- TGI (HCT-15 colon): 13.6 µM
- GI50 (HL-60(TB) leukemia): 0.695 µM
- TGI (HL-60(TB) leukemia): 13.2 µM
- GI50 (HOP-62 NSCLC): 4.06 µM
- TGI (HOP-62 NSCLC): 16.6 µM
- GI50 (HOP-92 NSCLC): 1.32 µM
- TGI (HOP-92 NSCLC): 6.02 µM
- GI50 (HS 578T breast): 1.27 µM
- TGI (HS 578T breast): 13.9 µM
- GI50 (HT29 colon): 1.23 µM
- TGI (HT29 colon): 13.7 µM
- GI50 (IGROV1 ovarian): 0.685 µM
- TGI (IGROV1 ovarian): 13.1 µM
- TGI (K-562 leukemia): > 100 µM
- GI50 (KM12 colon): 0.107 µM
- TGI (KM12 colon): 12.1 µM
- GI50 (LOX IMVI melanoma): 0.618 µM
- TGI (LOX IMVI melanoma): 2.38 µM
- GI50 (M14 melanoma): 0.524 µM
- TGI (M14 melanoma): 6.6 µM
- GI50 (MALME-3M melanoma): 0.422 µM
- TGI (MALME-3M melanoma): 2.81 µM
- GI50 (MCF7 breast): 3.9 µM
- TGI (MCF7 breast): 18.5 µM
- GI50 (MDA-MB-231 breast): 1.11 µM
- TGI (MDA-MB-231 breast): 6.55 µM
- GI50 (MDA-MB-435): 1.22 µM
- TGI (MDA-MB-435): 14.5 µM
- GI50 (MOLT-4 leukemia): 1.81 µM
- TGI (MOLT-4 leukemia): 22.4 µM
- GI50 (NCI-H226 lung): 0.704 µM
- TGI (NCI-H226 lung): 9.53 µM
